Laboratory results as given in PMC4501006, “Preliminary Characterization and In Vivo Studies of Structurally Identical ^18F- and ^125I-Labeled Benzyloxybenzenes for PET/SPECT Imaging of β-Amyloid Plaques” (Scientific Reports, 2015).
One block for each compound: values may come before it.

Columns and labels:
[1] = molecular target: Aβ plaques (Homo sapiens, UniProt P05067); test: In vitro autoradiography on AD human brain sections; format: binding
From the text: Figure 5 In vitro autoradiography of [^125I]7a (a–d), [^18F]7a (e–h), [^125I]12a (i–l) and [^18F]12a (m–p).

[2] = In vivo biodistribution in normal ICR mice; details: i.v.
Procedure: Histograms of brain and intestine uptake were presented in Fig. 6 for comparison, while detailed data concerning the in vivo biodistribution in normal ICR mice were collected in Table S3 in Supplementary information. […] [^125I]7a and [^125I]12a were rapidly cleared from the normal brain, with only small amounts of radioactivity remaining at 60 min post-injection (0.55% ID/g for [^125I]7a and 0.37% ID/g for [^125I]12a). […] In addition, no significant deiodination was observed (less than 0.5% ID in the thyroid at 60 min).
As the specific activity of ^18F-labeled ligands (about 60 GBq/μmol) was slightly lower than that of corresponding no-carrier-added ^125I-labeled ligands (81 GBq/μmol), the impact of specific activity on pharmacokinetics was studied. In vivo biodistribution of radioactivity after injection of carrier-added [^125I]7a with equal specific activity to corresponding [^18F]7a (60 GBq/μmol) was conducted in normal ICR mice through the same procedure.
A structural model of an Aβ fiber (PDB ID: 2LMO) derived from solid state NMR was downloaded from the RCSB Protein Data Bank (www.rcsb.org/pdb). Geometric optimization was performed using Gaussian 09 at the B3LYP/6–31 G and 3-21G levels in the water phase. Molecular docking was performed using AutoDock4.0, and the docking results were graphed with VMD 1.9.1 software. SYBYL-X 1.1 software was used to predict the binding affinities with previously constructed 3D-QSAR models. All reagents for chemical synthesis were used as purchased without further purification. [^125I]NaI was purchased from PerkinElmer and ^18F^– was kindly provided by the Chinese PLA General Hospital. ^1H and ^13C NMR spectra were recorded on a Bruker Avance III NMR spectrometer (400 MHz for ^1H; 101 MHz for ^13C) in CDCl3 or DMSO-d6 solutions at room temperature. Mass spectra were acquired with a GCT CA127 Micronass UK instrument. X-ray crystallographic data of compound 12a were collected on a Bruker Smart APEX II diffractometer (Bruker Co., Germany) and deposited at the Cambridge Crystallographic Data Centre as supplementary publication (no. CCDC 1063679). HPLC analysis was performed on a Shimadzu SCL-20 AVP equipped with a Bioscan Flow Count 3200 NaI/PMT γ-radiation scintillation detector and a SPD-20A UV detector, λ = 254 nm. A Venusil MP C18 reverse phase column (Agela Technologies, 5 μm, 4.6 × 250 mm) was used for separations and purity determinations with a binary gradient system (acetonitrile: water = 80%: 20%) at a 1.0 mL/min flow rate. Fluorescent observation was performed on the Axio Observer Z1 inverted fluorescence microscope (Zeiss, Germany) equipped with a DAPI filter set (excitation, 405 nm). Post-mortem brain sections from an autopsy-confirmed AD subject and a control subject were acquired from the Chinese Brain Bank. Transgenic mice (APPswe/PSEN1, male) and wild-type mice (C57BL6, male) were purchased from the Institute of Laboratory Animal Science, Chinese Academy of Medical Sciences. Normal ICR mice (20–22 g, male) were used for in vivo biodistribution, dynamic PET/CT and SPECT/CT scans, and biostability experiments. All experiments on mice were performed in accordance with the guidelines approved by the animal care committee of Beijing Normal University and Xiamen University.

Chain of Aβ plaques (P05067 672-711 limits assumed): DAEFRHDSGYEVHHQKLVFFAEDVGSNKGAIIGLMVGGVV

in vitro autoradiography, plaque labeling [1]: specifically label Aβ deposits
brain2 min/brain60 min ratio [2]: 1.8
Biodistribution of radioactivity, blood ([2]; 2 min): 5.99 ± 0.16 % injected dose per gram
Biodistribution of radioactivity, bone ([2]; 2 min): 2.53 ± 0.43 % injected dose per gram
Biodistribution of radioactivity, brain ([2]; 2 min): > 5 % injected dose per gram
Biodistribution of radioactivity, heart ([2]; 2 min): 9.32 ± 0.27 % injected dose per gram
Biodistribution of radioactivity, intestine ([2]; 2 min): 6.38 ± 1.04 % injected dose per organ
Biodistribution of radioactivity, kidney ([2]; 2 min): 12.70 ± 0.69 % injected dose per gram
Biodistribution of radioactivity, liver ([2]; 2 min): 17.83 ± 1.41 % injected dose per gram
Biodistribution of radioactivity, lung ([2]; 2 min): 9.34 ± 0.45 % injected dose per gram
Biodistribution of radioactivity, muscle ([2]; 2 min): 5.03 ± 0.63 % injected dose per gram
Biodistribution of radioactivity, pancreas ([2]; 2 min): 8.18 ± 0.79 % injected dose per gram
Biodistribution of radioactivity, spleen ([2]; 2 min): 5.92 ± 1.30 % injected dose per gram
Biodistribution of radioactivity, stomach ([2]; 2 min): 1.55 ± 0.11 % injected dose per organ
Biodistribution of radioactivity, brain ([2]; 2 min, listed as [18F]7a): 6.14 ± 0.52 % injected dose per gram
Biodistribution of radioactivity, blood ([2]; 10 min): 4.29 ± 0.14 % injected dose per gram
Biodistribution of radioactivity, bone ([2]; 10 min): 1.55 ± 0.50 % injected dose per gram
Biodistribution of radioactivity, brain ([2]; 10 min): 4.78 ± 0.11 % injected dose per gram
Biodistribution of radioactivity, heart ([2]; 10 min): 4.03 ± 0.34 % injected dose per gram
Biodistribution of radioactivity, intestine ([2]; 10 min): 5.38 ± 0.33 % injected dose per organ
Biodistribution of radioactivity, kidney ([2]; 10 min): 7.69 ± 1.15 % injected dose per gram
Biodistribution of radioactivity, liver ([2]; 10 min): 6.07 ± 0.27 % injected dose per gram
Biodistribution of radioactivity, lung ([2]; 10 min): 4.63 ± 0.35 % injected dose per gram
Biodistribution of radioactivity, muscle ([2]; 10 min): 3.46 ± 0.19 % injected dose per gram
Biodistribution of radioactivity, pancreas ([2]; 10 min): 3.96 ± 0.15 % injected dose per gram
Biodistribution of radioactivity, spleen ([2]; 10 min): 3.33 ± 0.20 % injected dose per gram
Biodistribution of radioactivity, stomach ([2]; 10 min): 1.24 ± 0.13 % injected dose per organ
Biodistribution of radioactivity, blood ([2]; 30 min): 4.36 ± 0.20 % injected dose per gram
Biodistribution of radioactivity, bone ([2]; 30 min): 2.70 ± 0.48 % injected dose per gram
Biodistribution of radioactivity, brain ([2]; 30 min): 3.85 ± 0.24 % injected dose per gram
Biodistribution of radioactivity, heart ([2]; 30 min): 4.20 ± 0.52 % injected dose per gram
Biodistribution of radioactivity, intestine ([2]; 30 min): 5.95 ± 0.89 % injected dose per organ
Biodistribution of radioactivity, kidney ([2]; 30 min): 6.12 ± 0.79 % injected dose per gram
Biodistribution of radioactivity, liver ([2]; 30 min): 4.31 ± 0.32 % injected dose per gram
Biodistribution of radioactivity, lung ([2]; 30 min): 4.21 ± 0.18 % injected dose per gram
Biodistribution of radioactivity, muscle ([2]; 30 min): 3.82 ± 0.40 % injected dose per gram
Biodistribution of radioactivity, pancreas ([2]; 30 min): 3.62 ± 0.30 % injected dose per gram
Biodistribution of radioactivity, spleen ([2]; 30 min): 3.38 ± 0.23 % injected dose per gram
Biodistribution of radioactivity, stomach ([2]; 30 min): 1.82 ± 0.48 % injected dose per organ
Biodistribution of radioactivity, blood ([2]; 60 min): 4.97 ± 0.12 % injected dose per gram
Biodistribution of radioactivity, bone ([2]; 60 min): 4.16 ± 0.59 % injected dose per gram
Biodistribution of radioactivity, brain ([2]; 60 min): 3.48 % injected dose per gram
Biodistribution of radioactivity, heart ([2]; 60 min): 4.26 ± 0.13 % injected dose per gram
Biodistribution of radioactivity, intestine ([2]; 60 min): 8.13 ± 1.01 % injected dose per organ
Biodistribution of radioactivity, kidney ([2]; 60 min): 4.77 ± 0.52 % injected dose per gram
Biodistribution of radioactivity, liver ([2]; 60 min): 3.84 ± 0.21 % injected dose per gram
Biodistribution of radioactivity, lung ([2]; 60 min): 4.32 ± 0.17 % injected dose per gram
Biodistribution of radioactivity, muscle ([2]; 60 min): 4.31 ± 0.38 % injected dose per gram
Biodistribution of radioactivity, pancreas ([2]; 60 min): 2.89 ± 0.37 % injected dose per gram
Biodistribution of radioactivity, spleen ([2]; 60 min): 3.28 ± 0.29 % injected dose per gram
Biodistribution of radioactivity, stomach ([2]; 60 min): 1.58 ± 0.18 % injected dose per organ
Biodistribution of radioactivity, brain ([2]; 60 min, listed as [18F]7a): 3.48 ± 0.12 % injected dose per gram
SMILES: [18F]CCOc1ccc(OCc2ccc(I)cc2)cc1 [[^18F]7a]

in vitro autoradiography, plaque labeling [1]: specifically label Aβ deposits
brain2 min/brain60 min ratio [2]: 1.6
Biodistribution of radioactivity, blood ([2]; 2 min): 7.53 ± 0.80 % injected dose per gram
Biodistribution of radioactivity, bone ([2]; 2 min): 2.55 ± 0.29 % injected dose per gram
Biodistribution of radioactivity, brain ([2]; 2 min): > 5 % injected dose per gram
Biodistribution of radioactivity, heart ([2]; 2 min): 9.11 ± 1.07 % injected dose per gram
Biodistribution of radioactivity, intestine ([2]; 2 min): 7.72 ± 0.54 % injected dose per organ
Biodistribution of radioactivity, kidney ([2]; 2 min): 11.63 ± 0.86 % injected dose per gram
Biodistribution of radioactivity, liver ([2]; 2 min): 13.20 ± 1.45 % injected dose per gram
Biodistribution of radioactivity, lung ([2]; 2 min): 9.17 ± 1.10 % injected dose per gram
Biodistribution of radioactivity, muscle ([2]; 2 min): 5.38 ± 0.47 % injected dose per gram
Biodistribution of radioactivity, pancreas ([2]; 2 min): 8.75 ± 0.33 % injected dose per gram
Biodistribution of radioactivity, spleen ([2]; 2 min): 4.98 ± 0.32 % injected dose per gram
Biodistribution of radioactivity, stomach ([2]; 2 min): 1.70 ± 0.08 % injected dose per organ
Biodistribution of radioactivity, brain ([2]; 2 min, listed as [18F]12a): 6.76 ± 0.41 % injected dose per gram
Biodistribution of radioactivity, blood ([2]; 10 min): 4.55 ± 0.36 % injected dose per gram
Biodistribution of radioactivity, bone ([2]; 10 min): 2.13 ± 0.27 % injected dose per gram
Biodistribution of radioactivity, brain ([2]; 10 min): 5.73 ± 0.44 % injected dose per gram
Biodistribution of radioactivity, heart ([2]; 10 min): 4.40 ± 0.36 % injected dose per gram
Biodistribution of radioactivity, intestine ([2]; 10 min): 6.94 ± 0.53 % injected dose per organ
Biodistribution of radioactivity, kidney ([2]; 10 min): 6.19 ± 0.46 % injected dose per gram
Biodistribution of radioactivity, liver ([2]; 10 min): 4.74 ± 0.36 % injected dose per gram
Biodistribution of radioactivity, lung ([2]; 10 min): 4.91 ± 0.60 % injected dose per gram
Biodistribution of radioactivity, muscle ([2]; 10 min): 3.92 ± 0.41 % injected dose per gram
Biodistribution of radioactivity, pancreas ([2]; 10 min): 3.96 ± 0.27 % injected dose per gram
Biodistribution of radioactivity, spleen ([2]; 10 min): 3.55 ± 0.26 % injected dose per gram
Biodistribution of radioactivity, stomach ([2]; 10 min): 1.54 ± 0.32 % injected dose per organ
Biodistribution of radioactivity, blood ([2]; 30 min): 5.91 ± 0.33 % injected dose per gram
Biodistribution of radioactivity, bone ([2]; 30 min): 3.31 ± 0.21 % injected dose per gram
Biodistribution of radioactivity, brain ([2]; 30 min): 5.02 ± 0.32 % injected dose per gram
Biodistribution of radioactivity, heart ([2]; 30 min): 5.41 ± 0.36 % injected dose per gram
Biodistribution of radioactivity, intestine ([2]; 30 min): 8.09 ± 0.43 % injected dose per organ
Biodistribution of radioactivity, kidney ([2]; 30 min): 6.19 ± 0.37 % injected dose per gram
Biodistribution of radioactivity, liver ([2]; 30 min): 4.84 ± 0.28 % injected dose per gram
Biodistribution of radioactivity, lung ([2]; 30 min): 5.34 ± 0.31 % injected dose per gram
Biodistribution of radioactivity, muscle ([2]; 30 min): 4.71 ± 0.50 % injected dose per gram
Biodistribution of radioactivity, pancreas ([2]; 30 min): 4.55 ± 0.36 % injected dose per gram
Biodistribution of radioactivity, spleen ([2]; 30 min): 4.29 ± 0.36 % injected dose per gram
Biodistribution of radioactivity, stomach ([2]; 30 min): 2.09 ± 0.32 % injected dose per organ
Biodistribution of radioactivity, blood ([2]; 60 min): 5.87 ± 0.19 % injected dose per gram
Biodistribution of radioactivity, bone ([2]; 60 min): 3.51 ± 0.78 % injected dose per gram
Biodistribution of radioactivity, brain ([2]; 60 min): 4.26 % injected dose per gram
Biodistribution of radioactivity, heart ([2]; 60 min): 4.76 ± 0.40 % injected dose per gram
Biodistribution of radioactivity, intestine ([2]; 60 min): 8.50 ± 1.23 % injected dose per organ
Biodistribution of radioactivity, kidney ([2]; 60 min): 5.48 ± 0.41 % injected dose per gram
Biodistribution of radioactivity, liver ([2]; 60 min): 4.64 ± 0.21 % injected dose per gram
Biodistribution of radioactivity, lung ([2]; 60 min): 5.19 ± 0.36 % injected dose per gram
Biodistribution of radioactivity, muscle ([2]; 60 min): 4.51 ± 0.49 % injected dose per gram
Biodistribution of radioactivity, pancreas ([2]; 60 min): 3.95 ± 0.25 % injected dose per gram
Biodistribution of radioactivity, spleen ([2]; 60 min): 3.87 ± 0.34 % injected dose per gram
Biodistribution of radioactivity, stomach ([2]; 60 min): 1.70 ± 0.29 % injected dose per organ
Biodistribution of radioactivity, brain ([2]; 60 min, listed as [18F]12a): 4.26 ± 0.18 % injected dose per gram
SMILES: [18F]CCOc1ccc(COc2ccc(I)cc2)cc1 [[^18F]12a]
